Measured values reported in US10723741B1, “DNA polymerase IIIC inhibitors and use thereof” (Acurx Pharmaceuticals, LLC, priority 2018, dated 2020).
In brackets after ≈: the same amount, converted by molar mass.

Experiments:
Format in all cases: cell-based
[1] = tested on: Staphylococcus aureus NRS384 (MRSA); experiment: Broth microdilution MIC, S. aureus NRS384 (MRSA); set-up: MIC NRS 384 (MRSA): unit not given here; settings: broth microdilution, 37° C., 20 hours; for MIC: Staphylococcus aureus, read-out: MIC NRS 384 (MRSA)
Procedure, shortened: (§1)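 Broth microdilution in strain-specific test medium with ~5.0×10^5 cfu/ml inoculum, 1% DMSO and two-fold compound dilutions from 64 to 0.0625 μg/ml. Plates were held 20 hours at 37° C in ambient air. S. pneumoniae colonies were grown beforehand on blood agar in 5% CO2.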

[2] = tested on: Bacillus subtilis ATCC 6633; experiment: Broth microdilution MIC, B. subtilis ATCC 6633; settings: ATCC6633, broth microdilution, 37° C., 20 hours, read-out: MIC B. subtilis ATCC 6633
Procedure, shortened: as §1

[3] = tested on: Enterococcus faecium ATCC 700221 (VRE); experiment: Broth microdilution MIC, E. faecium ATCC 700221 (VRE); set-up: MIC E. faecium ATCC 700221 (VRE): unit: ug/mL; settings: broth microdilution, 37° C., 20 hours; for MIC: Enterococcus faecium, read-out: MIC E. faecium ATCC 700221 (VRE)
Procedure, shortened: as §1

[4] = tested on: Staphylococcus aureus ATCC 29213 (MSSA); experiment: Broth microdilution MIC, S. aureus ATCC 29213 (MSSA); settings: broth microdilution, 37° C., 20 hours, read-out: MIC S. aureus ATCC 29213 (MSSA)
Procedure, shortened: as §1

[5] = tested on: Escherichia coli ATCC 25922; experiment: Broth microdilution MIC, E. coli ATCC 25922 (MHIIB w & w/o 4 mM EDTA); settings: broth microdilution, 37° C., 20 hours; for MIC: Escherichia coli, ATCC25922, without EDTA, read-out: MIC E. coli ATCC 25922; for MIC E. coli ATCC 25922 + 4 mM EDTA: with 4 mM EDTA
Procedure, shortened: as §1

[6] = tested on: Enterococcus faecalis ATCC 29212; experiment: Broth microdilution MIC, E. faecalis ATCC 29212; settings: ATCC29212, broth microdilution, 37° C., 20 hours, read-out: MIC E. faecalis ATCC 29212
Procedure, shortened: as §1

[7] = tested on: Streptococcus pneumoniae ATCC 49619; experiment: Broth microdilution MIC, S. pneumoniae ATCC 49619; settings: ATCC49619, broth microdilution, 37° C., 20 hours, read-out: MIC S. pneumoniae ATCC 49619
Procedure, shortened: as §1

Compound	MIC [1] [µg/mL]	MIC [2] [µg/mL]	MIC [3] [µg/mL]	MIC [4] [µg/mL]	MIC [5] [µg/mL]	MIC E. coli ATCC 25922 + 4 mM EDTA [5] [µg/mL]	MIC [6] [µg/mL]	MIC [7] [µg/mL]	MIC NRS 384 (MRSA) [1]	MIC E. faecium ATCC 700221 (VRE) [3]
CN(C)C(=O)C1CN(CCn2ncc3nc(NCc4ccc(Cl)c(Cl)c4)[nH]c(=O)c32)CCO1.Cl (stereo not shown) [Compound 72, 4-(2-(5-((3,4-Dichlorobenzyl)amino)-7-oxo-6,7-dihydro-1H-pyrazolo[4,3-d]pyrimidin-1-yl)ethyl)-N,N-dimethylmorpholine-2-carboxamide hydrochloride]	16	4	8	16	> 64	>64	8	8		
Cn1ncc2nc(NCc3cccc(Cl)c3)[nH]c(=O)c21 [Compound 26, 5-((3-Chlorobenzyl)amino)-1-methyl-1H-pyrazolo[4,3-d]pyrimidin-7(6H)-one]	32 (≈ 110 µM)	16 (≈ 55.2 µM)	32 (≈ 110 µM)	32 (≈ 110 µM)	> 64	64	64 (≈ 221 µM)	16 (≈ 55.2 µM)		
Cl.O=c1[nH]c(NCc2ccc(Cl)c(Cl)c2)nc2cnn(CCNC3=NCCN3)c12 [Compound 295, 5-((3,4-Dichlorobenzyl)amino)-1-(2-((4,5-dihydro-1H-imidazol-2-yl)amino)ethyl)-1H-pyrazolo[4,3-d]pyrimidin-7(6H)-one hydrochloride]	64	32	64	> 64	> 64	64	64	32		
O=c1[nH]c(NCc2ccc(Cl)c(Cl)c2)nc2cnn(CCOC3COC3)c12 [Compound 178, 5-((3,4-Dichlorobenzyl)amino)-1-(2-(oxetan-3-yloxy)ethyl)-1H-pyrazolo[4,3-d]pyrimidin-7(6H)-one]		2 (≈ 4.87 µM)		4 (≈ 9.75 µM)	> 64	>64	8 (≈ 19.5 µM)	4 (≈ 9.75 µM)	4/4	4/4
O=c1[nH]c(NCc2ccc(Cl)c(Cl)c2)nc2cnn(C3CCOCC3)c12 [Compound 121, 5-((3,4-Dichlorobenzyl)amino)-1-(tetrahydro-2H-pyran-4-yl)-1H-pyrazolo[4,3-d]pyrimidin-7(6H)-one]	2 (≈ 5.07 µM)	0.5 (≈ 1.27 µM)	2 (≈ 5.07 µM)	4 (≈ 10.1 µM)	> 64	>64	4 (≈ 10.1 µM)	4 (≈ 10.1 µM)		
Cc1cccnc1C(=O)N1CCC(n2ncc3nc(NCc4ccc(Cl)c(Cl)c4)[nH]c(=O)c32)CC1.Cl [Compound 262, 5-((3,4-Dichlorobenzyl)amino)-1-(1-(3-methylpicolinoyl)piperidin-4-yl)-1H-pyrazolo[4,3-d]pyrimidin-7(6H)-one hydrochloride]	4	1	2	4	> 64	>64	4	4		
CC(C)(C)OC(=O)N1CCC(CN2CCC(n3ncc4nc(NCc5ccc(Cl)c(Cl)c5)[nH]c(=O)c43)CC2)CC1 [Compound 248, tert-Butyl 4-((4-(5-((3,4-dichlorobenzyl)amino)-7-oxo-6,7-dihydro-1H-pyrazolo[4,3-d]pyrimidin-1-yl)piperidin-1-yl)methyl)piperidine-1-carboxylate2,2,2-trifluoroacetate]	16 (≈ 27.1 µM)	4 (≈ 6.77 µM)	4 (≈ 6.77 µM)	16 (≈ 27.1 µM)	> 64	8	4 (≈ 6.77 µM)	8 (≈ 13.5 µM)		
Cl.O=c1[nH]c(NCc2ccc(Cl)c(Cl)c2)nc2cnn(CCN3CCOCC3)c12 [Compound 57, 5-((3,4-dichlorobenzyl)amino)-1-(2-morpholinoethyl)-1H-pyrazolo[4,3-d]pyrimidin-7(6H)-one hydrochloride]	2	1	1	2	> 64	>64	4	2		
